The record followed here is the supplement of paper PMC10702517.

The data set in a line: chemical recovery from spiked human plasma; higher = better extraction. The note with it: pooled human plasma.
Where [1] appears, read: extraction method: SPE only (HLB 96-well), PES comparison experiment.
Where [2] appears, read: extraction method: solvent precipitation (ACN + hexane).
[3] abbreviates: extraction method: SPE only (HLB 96-well).
[4] abbreviates: extraction method: PES+SPE (3 d PDMS equilibration then HLB SPE).

± gives the standard deviation.

On to `CCCCCCCCCCCCN(C)C` [N,N-Dimethyldodecylamine], for which the chemical recovery runs as follows: under setting [1], 42.1 ± 8.8%; under setting [2], 78.3 ± 23%.
In the case of `CC(C)CC(C)Nc1ccc(Nc2ccccc2)cc1` (stereo unspecified) [N-(1,3-Dimethylbutyl)-N'-phenyl-1,4-phenylenediamine], under setting [3], the chemical recovery worked out at 1.42 ± 1.6%.
Turning to `C=C(C)C(=O)NCCCN(C)C` [N-(3-Dimethylamino)propyl)methacrylamide], the chemical recovery runs as follows: under setting [4], 42.3 ± 14%; under setting [3], 39.9 ± 3.7%.
Regarding `CC(=O)Nc1c(C)n(C)n(-c2ccccc2)c1=O` [N-Acetyl-4-aminoantipyrine], the chemical recovery was 44.5 ± 5.9% under setting [4] and 43.1 ± 2.7% under setting [3].
In the case of `CCNC(=O)c1cccc(C)c1` [N-Ethyl-3-methylbenzamide], the chemical recovery is, setting by setting: under setting [4], 29.2 ± 9.2%; under setting [3], 37.3 ± 0.9%; under setting [2], 57.5 ± 1%.
Compound `CCNS(=O)(=O)C(F)(F)C(F)(F)C(F)(F)C(F)(F)C(F)(F)C(F)(F)C(F)(F)C(F)(F)F` [N-Ethylperfluorooctane-sulfonamide] came in with a chemical recovery under setting [3] of 2.91 ± 0.86%.
In the case of `CCCCCCCCCCCC(=O)NCCO` [N-Lauroylethanolamine], the chemical recovery is, setting by setting: under setting [3], 47.5 ± 6%; under setting [2], 74.2 ± 3.9%.
For the compound `CN1CCCC1=O` [N-Methyl-2-pyrrolidone], the chemical recovery under setting [2] is 1.36 ± 2.4%.
For `CN(C1CCCCC1)C1CCCCC1` [N-Methyl-dicyclohexylamine], the chemical recovery reads like this: under setting [4], 0.654 ± 0.19%; under setting [3], 30.9 ± 1.6%; under setting [2], 50.9 ± 7.1%.
With `CNC(=O)c1ccccc1` [N-Methylbenzamide], the chemical recovery reads like this: under setting [4], 35 ± 8.6%; under setting [3], 38.2 ± 3%; under setting [2], 88 ± 3.1%.
For `CNS(=O)(=O)c1ccccc1` [N-Methylbenzenesulfonamide], under setting [2], the chemical recovery was 77.4 ± 3.4%.
Consider `CCN(CC)C(=O)C(C)Oc1cccc2ccccc12` (stereo unspecified) [Napropamide], for which the chemical recovery under setting [2] is 70.6 ± 2.5%.
Consider `CN1CCC[C@H]1c1cccnc1` [Nicotine], for which the chemical recovery turned out to be 0.141 ± 0.063% under setting [4], 0.399 ± 0.15% under setting [3] and 49.1 ± 4.3% under setting [2].
For `O=C1CN(/N=C/c2ccc([N+](=O)[O-])o2)C(=O)N1` [Nitrofurantoin], the chemical recovery under setting [1] turned out to be 54.8 ± 8.6%.
Regarding `CCn1cc(C(=O)O)c(=O)c2cc(F)c(N3CCNCC3)cc21` [Norfloxacin], the chemical recovery under setting [2] is 63.3 ± 5.8%.
Regarding `CC1(C)CC(NC(=O)c2cccc(C(=O)NC3CC(C)(C)NC(C)(C)C3)c2)CC(C)(C)N1` [Nylostab-S-EED], the chemical recovery under setting [2] worked out at 70.4 ± 5.2%.
Regarding `CCCCCCCCOC(=O)CCc1cc(C(C)(C)C)c(O)c(C(C)(C)C)c1` [Octyl-3,5-di-tert-butyl-4-hydroxyhydrocinnamate], the chemical recovery under setting [1] was found to be 0.29 ± 0.58%.
For `CCCCC(CC)COC(=O)C=Cc1ccc(OC)cc1` (stereo unspecified) [Octyl-methoxycinnamate], the chemical recovery came out at 10.2 ± 2.1% under setting [3] and 141 ± 20% under setting [2].
`COc1ccc2[nH]c(SCc3ncc(C)c(OC)c3C)nc2c1` [Omeprazole-sulfide]: the chemical recovery came to 19.8 ± 2.5% under setting [4], 42 ± 3.9% under setting [3] and 72.5 ± 3.6% under setting [2].
As for `Cc1nccn1CC1CCc2c(c3ccccc3n2C)C1=O` (stereo unspecified) [Ondansetron], the chemical recovery is, setting by setting: under setting [4], 15.3 ± 3.4%; under setting [3], 32.6 ± 2%; under setting [1], 45.7 ± 7.4%; under setting [2], 73.2 ± 2.9%.
Regarding `CCCCCCCCCCC[C@@H](C[C@@H]1OC(=O)[C@H]1CCCCCC)OC(=O)[C@H](CC(C)C)NC=O` [Orlistat], the chemical recovery runs as follows: under setting [3], 3.21 ± 3.3%; under setting [1], 6 ± 3.7%.
As for `CNC(=O)O/N=C(\SC)C(=O)N(C)C` [Oxamyl], the chemical recovery turned out to be 28 ± 2.6% under setting [3] and 6.16 ± 4.2% under setting [2].
In the case of `NC(=O)N1c2ccccc2CC(=O)c2ccccc21` [Oxcarbazepine], under setting [2], the chemical recovery turned out to be 0.126 ± 0.22%.
On to `CCCCC(CC)COC(=O)c1ccc(N(C)C)cc1` (stereo unspecified) [Padimate-O], for which the chemical recovery under setting [3] worked out at 22.8 ± 4.1%.
For `CCCCCCCCCCCCCCCC(=O)NCCO` [Palmitoylethanolamide], under setting [3], the chemical recovery worked out at 33.5 ± 8.8%.
Consider `CCCC(Cn1cncn1)c1ccc(Cl)cc1Cl` (stereo unspecified) [Penconazole], for which the chemical recovery runs as follows: under setting [4], 51.3 ± 5.9%; under setting [3], 65.9 ± 1.6%; under setting [2], 67.7 ± 4.2%.
For the compound `O=C(Nc1ccccc1)N(Cc1ccc(Cl)cc1)C1CCCC1` [Pencycuron], the chemical recovery is, setting by setting: under setting [4], 54 ± 6.3%; under setting [3], 28.4 ± 3.3%.
For the compound `COc1cnc(OC)n2nc(NS(=O)(=O)c3c(OCC(F)F)cccc3C(F)(F)F)nc12` [Penoxsulam], the chemical recovery reads like this: under setting [4], 53.1 ± 7.8%; under setting [3], 42.2 ± 4.3%; under setting [2], 78.9 ± 3.6%.
On to `CCc1c(Br)c(Br)c(Br)c(Br)c1Br` [Pentabromoethylbenzene], for which the chemical recovery is, setting by setting: under setting [4], 53.3 ± 3.7%; under setting [3], 3.34 ± 1.2%.
For `Cc1c(Br)c(Br)c(Br)c(Br)c1Br` [Pentabromotoluene], the chemical recovery by setting is: under setting [4], 61.6 ± 3.7%; under setting [3], 6.76 ± 2.3%.
Turning to `NC(=O)C(F)(F)C(F)(F)F` [Pentafluoropropionamide], the chemical recovery under setting [4] was determined as 9.12 ± 7.6%, the chemical recovery under setting [3] worked out at 0.923 ± 0.9% and the chemical recovery under setting [2] stood at 0.174 ± 0.24%.
For the compound `CCCC(C)C1(CC)C(=O)NC(=O)NC1=O` (stereo unspecified) [Pentobarbital], the chemical recovery is, setting by setting: under setting [4], 49.6 ± 5.1%; under setting [3], 43.8 ± 2%; under setting [2], 75.7 ± 6.9%.
On the same counts, the results for `O=C(O)C(F)(F)C(F)(F)C(F)(F)OC(F)(F)F` [Perfluoro-4-methoxybutanoic-acid] are 43.5 ± 3.9%, 36.7 ± 2.8% and 78.7 ± 3.5%.
Take `O=S(=O)(O)C(F)(F)C(F)(F)C(F)(F)C(F)(F)F` [Perfluorobutanesulfonic-acid]: the chemical recovery under setting [4] came out at 49.5 ± 3.7%, the chemical recovery under setting [3] was 45.3 ± 3.3% and the chemical recovery under setting [2] is 81.9 ± 2.1%.
For `O=S(=O)(O)C(F)(F)C(F)(F)C(F)(F)C(F)(F)C(F)(F)C(F)(F)C(F)(F)F` [Perfluoroheptanesulfonic-acid], in that order: 38.6 ± 6.2%, 35.6 ± 2% and 61.6 ± 3.8%.
In the case of `O=S(=O)(O)C(F)(F)C(F)(F)C(F)(F)C(F)(F)C(F)(F)C(F)(F)F` [Perfluorohexanesulfonic-acid], the chemical recovery was 40.9 ± 4.1% under setting [4] and 34.4 ± 2.7% under setting [3].
On to `O=C(O)C(F)(F)C(F)(F)C(F)(F)C(F)(F)C(F)(F)F` [Perfluorohexanoic acid], for which the chemical recovery stood at 40.2 ± 4.7% under setting [4], 35.5 ± 3.9% under setting [3], 44.4 ± 8.7% under setting [1] and 75.3 ± 4.1% under setting [2].
On to `O=P(O)(O)C(F)(F)C(F)(F)C(F)(F)C(F)(F)C(F)(F)C(F)(F)F` [Perfluorohexylphosphonic-acid], for which the chemical recovery was 37.5 ± 6% under setting [4], 31.2 ± 4.6% under setting [3] and 26.7 ± 9.3% under setting [2].
Take `O=C(O)C(F)(F)C(F)(F)C(F)(F)C(F)(F)C(F)(F)C(F)(F)C(F)(F)C(F)(F)F` [Perfluorononanoic-acid]: the chemical recovery amounted to 8.32 ± 1.8% under setting [3] and 66.3 ± 5.1% under setting [2].
For `NS(=O)(=O)C(F)(F)C(F)(F)C(F)(F)C(F)(F)C(F)(F)C(F)(F)C(F)(F)C(F)(F)F` [Perfluorooctanesulfonamide], the chemical recovery is, setting by setting: under setting [3], 32 ± 4.9%; under setting [1], 38.8 ± 9.3%.
On to `O=S(=O)(O)C(F)(F)C(F)(F)C(F)(F)C(F)(F)C(F)(F)C(F)(F)C(F)(F)C(F)(F)F` [Perfluorooctanesulfonic acid], for which the chemical recovery under setting [3] turned out to be 26.8 ± 0.38%.
Take `O=C(O)C(F)(F)C(F)(F)C(F)(F)C(F)(F)C(F)(F)C(F)(F)C(F)(F)F` [Perfluorooctanoic acid]: the chemical recovery stood at 30.2 ± 2.8% under setting [3], 33.6 ± 8.8% under setting [1] and 89.3 ± 19% under setting [2].
`O=S(=O)(O)C(F)(F)C(F)(F)C(F)(F)C(F)(F)C(F)(F)F` [Perfluoropentanesulfonic-acid]: the chemical recovery under setting [4] came out at 47.1 ± 4.2%, the chemical recovery under setting [3] is 36.5 ± 4.8% and the chemical recovery under setting [2] was found to be 72.9 ± 3.6%.
Consider `O=C(O)C(F)(F)C(F)(F)C(F)(F)C(F)(F)F` [Perfluoropentanoic-acid], for which the chemical recovery runs as follows: under setting [4], 32.1 ± 3.4%; under setting [3], 31.1 ± 3.3%; under setting [2], 78.1 ± 8.5%.
Regarding `O=C(O)C(F)(F)C(F)(F)F` [Perfluoropropanoic-acid], the chemical recovery is, setting by setting: under setting [4], 2.17 ± 0.57%; under setting [3], 3.57 ± 2.9%; under setting [2], 86.2 ± 7.5%.
Regarding `O=C(O)C(F)(F)C(F)(F)C(F)(F)C(F)(F)C(F)(F)C(F)(F)C(=O)O` [Perfluorosuberic-acid-], the chemical recovery reads like this: under setting [4], 0.975 ± 0.36%; under setting [3], 5.56 ± 1.8%; under setting [2], 71.9 ± 7.3%.
In the case of `O=C(O)C(F)(F)C(F)(F)C(F)(F)C(F)(F)C(F)(F)C(F)(F)C(F)(F)C(F)(F)C(F)(F)C(F)(F)C(F)(F)C(F)(F)C(F)(F)F` [Perfluorotetradecanoic acid], the chemical recovery under setting [2] came out at 41.3 ± 11%.
`O=C(O)C(F)(F)C(F)(F)C(F)(F)C(F)(F)C(F)(F)C(F)(F)C(F)(F)C(F)(F)C(F)(F)C(F)(F)F` [Perfluoroundecanoic-acid] showed a chemical recovery under setting [3] of 26.8 ± 6%.
For `CC1(C)C(C=C(Cl)Cl)C1C(=O)OCc1cccc(Oc2ccccc2)c1` (stereo unspecified) [Permethrin], the chemical recovery runs as follows: under setting [4], 55 ± 9.7%; under setting [3], 2.59 ± 1%; under setting [2], 35.4 ± 3.1%.
For the compound `NCCc1ccccc1` [Phenethylamine], the chemical recovery came to 6.63 ± 4.2% under setting [3] and 47.1 ± 1.7% under setting [2].
For `c1ccc2c(c1)Nc1ccccc1S2` [Phenothiazine], under setting [2], the chemical recovery turned out to be 41.2 ± 4.4%.
Take `CCC(C(N)=O)(C(N)=O)c1ccccc1` [Phenylethylmalonamide]: the chemical recovery by setting is: under setting [4], 43.1 ± 4.2%; under setting [3], 37.2 ± 2.4%; under setting [1], 60.3 ± 8.1%.
Regarding `NNc1ccccc1` [Phenylhydrazine], the chemical recovery under setting [2] came out at 40.7 ± 8.9%.
Under setting [4], `O=P(O)(O)Oc1ccccc1` [Phenylphosphate] had a chemical recovery of 0.213 ± 0.049%.
Turning to `CCOP(=S)(OCC)SCSCC` [Phorate], the chemical recovery is, setting by setting: under setting [4], 0.327 ± 0.035%; under setting [3], 10.2 ± 3.3%; under setting [2], 37.8 ± 3.6%.
Under setting [3], `N#Cc1ccccc1C#N` [Phthalonitrile] gave a chemical recovery of 8.49 ± 8.2%.
Regarding `Nc1c(Cl)c(Cl)nc(C(=O)O)c1Cl` [Picloram], the chemical recovery is, setting by setting: under setting [4], 29.5 ± 5.1%; under setting [3], 34.9 ± 2.7%; under setting [2], 63.3 ± 3.8%.
